Values joined by “and” are separate entries in the source; they are usually repeats but may differ in a detail not shown here. Identical values can stand only once.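 Method: 48-hour compound exposure of cells in 96-well plates, five concentrations, linear interpolation of endpoints. Abbreviation: GI50, concentration required for 50% inhibition of growth. TGI is the concentration that stops growth completely.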
Columns and labels:
Assay in all cases: NCI anticancer screen, dose series, 48 h
TK-10 renal = tested on: TK-10 renal
PC-3 prostate = tested on: PC-3 prostate
MDA-MB-231 breast = tested on: MDA-MB-231 breast
K-562 leukemia = tested on: K-562 leukemia
A498 renal = tested on: A498 renal
MOLT-4 leukemia = tested on: MOLT-4 leukemia
HL-60(TB) leukemia = tested on: HL-60(TB) leukemia
NCI-H460 lung = tested on: NCI-H460 lung
OVCAR-3 ovarian = tested on: OVCAR-3 ovarian
IGROV1 ovarian = tested on: IGROV1 ovarian

| SMILES | GI50 (TK-10 renal) | TGI (TK-10 renal) | GI50 (PC-3 prostate) | TGI (PC-3 prostate) | GI50 (MDA-MB-231 breast) | TGI (MDA-MB-231 breast) | GI50 (K-562 leukemia) | TGI (K-562 leukemia) | GI50 (A498 renal) | TGI (A498 renal) | GI50 (MOLT-4 leukemia) | TGI (MOLT-4 leukemia) | GI50 (HL-60(TB) leukemia) | TGI (HL-60(TB) leukemia) | GI50 (NCI-H460 lung) | TGI (NCI-H460 lung) | GI50 (OVCAR-3 ovarian) | TGI (OVCAR-3 ovarian) | TGI (IGROV1 ovarian) | GI50 (IGROV1 ovarian) |
| --- | --- | --- | --- | --- | --- | --- | --- | --- | --- | --- | --- | --- | --- | --- | --- | --- | --- | --- | --- | --- |
| CC1=CC(=Nc2ccc(N(CCCl)CCCl)cc2)C=C(C)C1=O | 1.94 µM | 5.55 µM | 1.48 µM | 7.08 µM | 2.85 µM | 9.32 µM | 1.21 µM | > 100 µM | 1.68 µM | 4.13 µM | 0.377 µM | > 25.6 µM | 0.309 µM | 2.9 µM | 0.181 µM | 1.96 µM | 1.05 µM | 3.13 µM |  |  |
| CC[C@@H]1CN(C)[C@H]2Cc3c([nH]c4ccccc34)C(=O)C[C@H]1C2C(=O)OC (stereo not given in full) |  | > 100 µM |  | > 100 µM |  | > 100 µM |  | > 100 µM |  | > 100 µM |  | > 100 µM |  | > 100 µM |  | > 100 µM |  | > 100 µM | > 100 µM |  |
| CCN(CC)CCOc1ccc(/C(=C(\Cl)c2ccccc2)c2ccccc2)cc1 | 5.62 µM and 2.83 µM | 12.6 µM and 10.2 µM | 2.63 µM and 2.76 µM | 9.02 µM and 10.2 µM | 1.37 µM and 2.13 µM | 5.16 µM and 4.49 µM | 1.55 µM | 11.5 µM | 6.96 µM and 2.32 µM | 13.7 µM and 10.1 µM | 2.98 µM and 3.71 µM | 11.8 µM and 13.1 µM | 2.1 µM and 3.13 µM | 7.77 µM and 6.16 µM | 1.72 µM and 1.78 µM | 5.32 µM and 3.43 µM | 5.24 µM and 3.42 µM | 11.4 µM and 15.7 µM | 12.8 µM and 14.1 µM | 4.83 µM and 3.04 µM |
| C=C1C(=O)O[C@H]2[C@H]1CC/C(COC(=O)c1ccc3ccccc3c1)=C\CC[C@@]1(C)O[C@@H]21 | 1.52 µM | 2.85 µM | 1.24 µM | 2.79 µM | 1.35 µM | 3 µM | 0.39 µM | 5.47 µM | 1.88 µM | 4.5 µM | 0.503 µM | 3.47 µM | 0.849 µM | 3.83 µM | 1.69 µM | 3.75 µM | 0.538 µM | 1.77 µM | 2.19 µM | 0.703 µM |
| COC(=O)[C@]12CC[C@@H](C)[C@H](C)[C@@H]1C1=CC[C@@H]3[C@@]4(C)C/C(=N\O)[C@H](O)[C@@]5(C)COC(=C45)C[C@@]3(C)[C@]1(C)CC2 | 18.3 µM | 33.9 µM | 2.34 µM | 6.51 µM | 3.84 µM | 16 µM | 3.77 µM | 14.9 µM | 9.94 µM | 21.9 µM | 2.97 µM | 10.8 µM | 3.64 µM | 13.2 µM | 3.29 µM | 10.7 µM | 5.47 µM | 18.2 µM | 25.1 µM | 8.87 µM |
| COc1ccc(-c2cnnc3c(-c4cccc(C(F)(F)F)c4)cnn23)cc1 |  |  | 6.22 µM | > 100 µM | 3.55 µM | > 100 µM | > 100 µM | > 100 µM | 3.52 µM | 62.6 µM | > 100 µM | > 100 µM | > 100 µM | > 100 µM | 4.67 µM | > 100 µM | 2.55 µM | 6.45 µM | > 100 µM | 1.97 µM |
| COc1ccc(NC2=CC(=O)C(=O)c3ccccc32)nn1 |  | 9.92 µM |  | 38.9 µM |  | 34.8 µM |  | 1.31 µM |  | 3.29 µM |  | 1.76 µM |  | 0.898 µM |  | 3.49 µM |  | 5.94 µM | 11.1 µM |  |
| CC(C)(C)OC(=O)N1CCc2c(sc3ncnc(N/N=C/c4cccc5ccccc45)c23)C1 | 5.89 µM | > 100 µM | 4.59 µM | > 100 µM | 5.93 µM | > 100 µM | 2.88 µM | 62.4 µM | 2.3 µM | 9.79 µM | 3.25 µM | 16.9 µM | 2.81 µM | 13.4 µM | 3.29 µM | 12.7 µM | 3.95 µM | 77.7 µM | > 100 µM | 3.94 µM |
| OCc1c[nH]c2ccccc12 | 44.5 µM | > 100 µM | 15.5 µM | 45.3 µM | 14.7 µM | 47.7 µM | 33.8 µM | > 100 µM | 31.3 µM | > 100 µM | 39.1 µM | > 100 µM | 35.1 µM | 77.3 µM | 21 µM | 45.4 µM | 20.3 µM | 49.3 µM | 42.2 µM | 14.1 µM |
| N#CSc1c[nH]c2cccc(/C=C/C(=O)/C=C(/C=C/c3cccc4[nH]cc(SC#N)c34)OB(F)F)c12 | 0.961 µM | 5.94 µM | 0.419 µM | 4.19 µM | 0.442 µM | 1.57 µM | 0.297 µM | 1.38 µM | 2.01 µM | 6.97 µM | 0.302 µM | 3.14 µM | 0.293 µM | 5.25 µM | 1.12 µM | 6.13 µM | 0.243 µM | 0.586 µM | 4.36 µM | 0.448 µM |
| O/N=C/C1c2ccccc2-c2ccccc21 |  | 34.9 µM |  | 36.9 µM |  | 29 µM |  | 67.3 µM |  | 32.9 µM |  | 52.6 µM |  | 93.7 µM |  | 36 µM |  | 34.1 µM |  |  |
| COc1cc2c(c(O)c1Br)C(=O)c1c(O)cc(C[C@H](C)O)cc1[C@H]2[C@H]1c2cc(C[C@H](C)O)cc(O)c2C(=O)c2c1cc(OC)c(Br)c2O | 13.8 µM and 31.4 µM | 67.5 µM and > 100 µM | 2.85 µM and 4.4 µM | 67.5 µM and > 100 µM | 3.76 µM and 14.1 µM | 21.7 µM and 34.8 µM | 2.74 µM and 6.22 µM | 67.5 µM and > 100 µM | 4.35 µM and 22.5 µM | 35.1 µM and 58.5 µM | 3.54 µM and 6.39 µM | 67.5 µM and > 100 µM | 3.28 µM and 17.4 µM | 28 µM and 48.5 µM | 2.76 µM and 5.27 µM | 21.4 µM and 19.4 µM | 15.3 µM and 31.1 µM | 67.5 µM and > 100 µM | 46.7 µM and 28.2 µM | 2.98 µM and 5.45 µM |
| C=CC(=O)N1CC2(CCN(c3nc(OC4CCN(CCCOC)CC4)nc4c(OCC(F)(F)F)c(-c5c(C)ccc6[nH]ncc56)c(C5CC5)cc34)CC2)C1 | 3.73 µM | 14.3 µM | 2.61 µM | 9.86 µM | 1.98 µM | 3.94 µM | 2.07 µM | 5.84 µM | 15.4 µM | 29.5 µM | 1.67 µM | 6.06 µM | 1.76 µM | 4.57 µM | 2.09 µM | 4.4 µM | 2.37 µM | 5.28 µM | 21.3 µM | 6.88 µM |
| Cn1c(=O)c2[nH]c(SCc3ccccn3)nc2n(C)c1=S |  | > 100 µM |  | > 100 µM |  | > 100 µM |  | > 100 µM |  | 55.2 µM |  | > 100 µM |  | > 100 µM |  | > 100 µM |  | > 100 µM | > 100 µM |  |

From PubChem BioAssay (NCI)
